Results on seven molecules are retold here after ChEMBL document CHEMBL3045626, “Interaction of 2-(4-Methylphenoxy)triethylamine and Related Compounds with Its Herbicide Target in the Carotenoid Biosynthetic Pathway” (J Pestic Sci, 1998).

One test deals with T1, Lycopene beta-cyclase (Pantoea ananas, UniProt P21687).
T1 sequence (P21687 whole entry): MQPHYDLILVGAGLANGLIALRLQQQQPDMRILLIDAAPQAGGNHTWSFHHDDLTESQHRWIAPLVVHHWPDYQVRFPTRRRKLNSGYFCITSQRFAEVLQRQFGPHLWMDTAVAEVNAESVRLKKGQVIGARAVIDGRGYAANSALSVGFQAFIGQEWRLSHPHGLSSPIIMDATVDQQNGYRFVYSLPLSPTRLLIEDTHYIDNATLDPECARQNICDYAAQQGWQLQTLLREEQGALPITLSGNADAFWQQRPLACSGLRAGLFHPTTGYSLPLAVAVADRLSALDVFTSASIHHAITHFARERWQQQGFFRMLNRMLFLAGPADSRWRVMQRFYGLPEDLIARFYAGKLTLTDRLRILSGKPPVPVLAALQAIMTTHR
As to the kind of experiment: Inhibition of Pantoea ananatis lycopene cyclase. The following applies: read-out: I50.

For test [1], the target named is T2, Lycopene beta-cyclase (Pantoea ananas) (UniProt P21687).
T2 sequence (whole entry): T1 sequence (P21687 whole entry)
As to the kind of experiment: Inhibition of Pantoea ananatis lycopene cyclase assessed as residual enzyme activity at 10 mM.

Test [2] addresses T2, Lycopene beta-cyclase (Pantoea ananas). As to the kind of experiment: Inhibition of Pantoea ananatis lycopene cyclase assessed as residual enzyme activity at 0.5 mM.

Each structure is given as a SMILES string.

As to `CN1CCC[C@H]1c1cccnc1` [NICOTINE], the IC50 at Lycopene beta-cyclase worked out at 4.8 µM. Moreover, the Activity in test [1] came out at 64%.
Turning to `O=CC(=O)c1ccccc1`, in test [2], the Activity worked out at 92%.
Still for that read-out and setting: the figure for `CC(=O)C(C)=O` is 90%.
Regarding `CCN(CC)CCOc1ccc(C)cc1`, the IC50 at Lycopene beta-cyclase turned out to be 12 µM.
Turning to `CCN1C(=O)C=CC1=O`, in test [2], the Activity was found to be 83%.
For the molecule `Cc1cc(OC(=O)N2CCCCC2)c(C(C)C)cc1[N+](C)(C)C`, in test [1], the Activity came to 36%.
For the molecule `NC(=O)CI`, the Activity in test [2] amounted to 87%.
